In US20070202163A1 (priority 2005, published 2007):
Entries after “also recorded” stand apart in the source; their conditions may differ. Where a name gives a salt, the structure may show the parent alone. Read-outs that look alike come from different tables or passages of the source.

Assays:
[1] = 7.3 mg in 100 μl of a saturated solution of mannitol, monitored over 5 minutes
[2] = cited from earlier work
[3] = rabbit, in vivo, im, 0.3 mg
Description: (§2) In a prospective, controlled, 5-way crossover study, five New Zealand white rabbits (mean weight 4.8±0.2 were investigated on five different days at least four weeks apart, using a protocol described previously (Gu et al., 1999). Each rabbit received EP 10 mg, EP 20 mg, and EP 40 mg as sublingual tablets, a placebo sublingual tablet (EP 0 mg) (as set forth in Table VI), and an EP 0.3 mg IM injection in the right thigh from EpiPen.
(§3) Using the same five New Zealand white rabbits (mean weight 4.8±0.2 Kg) as referred to supra, a prospective, controlled, 5-way crossover study was conducted, using a protocol described above (Gu et al., 1999), wherein each rabbit received an EP 40 mg sublingual tablet from each formulation set forth in Table XII and an EP 0.3 mg IM injection in the right thigh from EpiPen.
(§4) An indwelling catheter (OPTIVA 22G 1″, Johnson & Johnson) was inserted into an ear artery 30 min before dosing A 2 ml blood sample was obtained immediately before dosing and at 5, 10, 15, 20, 30, 40, 60, 90, 120, 150 and 180 minutes afterward.
(§5) Blood samples were refrigerated within 1 hour of sampling and centrifuged at 4° C. Plasma was frozen at −20° C. Before analysis, the plasma was thawed at room temperature and EP was extracted by a solid-liquid extraction process, with an efficiency of 70%-80%. […] The low range calibration curve was linear over the range of 0.1 to 1.0 ng/ml with a coefficient of variation of 0.8% at 0.1 ng and 1.4% at 1.0 ng. The high range calibration curve was linear over the range of 1.0 to 10.0 ng/ml with a coefficient of variation of 4.8% at 1.0 ng and 1.1% at 10.0 ng.
(§6) The AUC, Cmax, and Tmax values for each rabbit were compared using repeated measures ANOVA, Tukey-Kramer tests, and paired Students' t-test using NCSS Statistical Analysis Software (NCSS, Kaysville, Utah). Differences were considered to be significant at p<0.05.

in vivo [4] = settings: New Zealand white, rabbit, im, 0.3 mg
Description: as §2, §3, §4, §5, §6

[5] = rabbits; for Serum glucose level: relative to predose baseline; for Serum potassium levels: relative to predose levels
Description: (§1) Animals were evaluated for viability once-daily throughout the study. Cageside clinical observations were performed twice-daily from the initiation of dosing until the end of treatment. Body weights were obtained upon receipt, on Study Day 1 and weekly thereafter.

in vivo [6] = settings: for AUC(0-inf) / AUC(0-t) / Cmax / Tmax / half-life: both, NZW, rabbit, plasma
Description: Sublingual tablets or IM doses were administered using a Randomized Crossover study design over 5-consecutive weeks.
as §1
Blood samples (approximately 1 mL/time point) were obtained from an indwelling arterial catheter placed approximately 30-minutes prior to initiation of sample collection. Samples were collected immediately prior to dosing (pre-dose baseline) and at approximately 5, 10, 15, 20, 30, 40, 60, 90, 120, and 180 minutes after dosing. At later time points, the samples were obtained by direct needle puncture or by removing the catheter and allowing blood to flow directly from the animal's ear artery into the blood collection tube.
Immediately after collection, the tube was inverted several times to disperse the anticoagulant and then placed on ice until centrifugation. The blood samples were centrifuged (˜2000×g for 10 minutes at 8° C.) within approximately 15-30 minutes of collection to separate the cellular and plasma fractions. The plasma fraction was harvested into screw-capped tubes and stored at approximately −70° C. (±10° C.) until analyzed. […] The remaining red blood cell fraction was discarded.
The method was validated based on the commercial method developed by ESA Biosciences, Inc. (Chelmsford, Mass.). All standards and reagents for the extraction and chromatography were purchased from ESA. Plasma samples, calibrators and quality control (QC) samples were extracted as follows: Each 0.50 mL aliquot of calibration curve standard, QC or unknown sample was mixed with 0.50 mL of working internal standard (I.S.) stock solution (dihydroxybenzylamine [DHBA], 10 ng/mL) in an ESA extraction tube containing alumina and buffer. The extraction tubes were capped and placed on a rocking shaker for 10 minutes. The tubes were placed on a vacuum manifold and the liquid was aspirated to waste. Each tube was then filled with wash solution which was aspirated to waste. Eluting solution (200 μL) was added to each tube. The tubes were capped and vortex-mixed for 10 minutes. The eluting solution was then forced from the tube under pressure into a microcentrifuge tube. The samples were centrifuged for 15 minutes, transferred to an autosampler vial and a 50 μl aliquot was injected into the HPLC.
A freshly prepared standard curve was analyzed along with samples on each day of analysis. […] Calibrator concentrations were 0.5, 1, 2, 4, 8, 12, 16 and 20 ng/mL as determined in the validation study. […] For the determination of unknown sample concentrations, two standard curve ranges were used; 0.5 to 20 ng/mL and 12 to […]. Values of unknown samples less than or equal to 20 ng/mL were reported from the lower range, and values greater than 20 ng/mL were reported from the higher range.
Elimination half-life (T½), maximum concentration (Cmax), time of maximum concentration (Tmax), area under the plasma concentration-time curve from time 0 through the final timepoint (AUC0-t), and area under the plasma concentration-time curve from time 0 extrapolated to infinity (AUC0-∞) were calculated for this study. The noncompartmental model for extravascular administration was used for all pharmacokinetic analyses. The calculation method was linear trapezoidal with linear/log interpolation. The elimination rate constant, lambda z (λz), was determined by WinNonlin using the best fit method.

[7] = rabbits, 0.3 mg IM, mean ± SD, listed as epinephrine
[8] = rabbits, 15 mg sublingual tablet, N = 1
[9] = rabbits, 15 mg sublingual tablet, mean ± SD
[10] = rabbits, 30 mg sublingual tablet, mean ± SD
[11] = rabbits, 30 mg sublingual tablet, mean ± SD, listed as epinephrine
[12] = rabbits, 60 mg sublingual (2x30 mg tablets), mean ± SD

For `CNC[C@H](O)c1ccc(O)c(O)c1` [EPBT, (−)-3,4-dihydroxy-α-[(methylamino)methyl]benzyl alcohol (+)-tartrate (1:1) salt], the Dissolution of crystals [1] is listed as “incomplete after 5 minutes; also recorded: slow and incomplete at the end of 5 minutes” and the Water solubility [2] is listed as 1 gm in 3 ml water.
Compound `CNC[C@H](O)c1ccc(O)c(O)c1` [Epinephrine] has an AUC [3] of 2431 ± 386 ng/mL/min, a Cmax (in vivo [4]) of 50.3 ± 17.1 ng/mL and a Tmax (in vivo [4]) of 21 min. The Serum glucose level ([5]; 0.3 mg IM) was “increase in serum glucose level”, the Serum potassium levels ([5]; 30 mg sublingual) was “decreased” and the Serum glucose level ([5]; 60 mg sublingual) was “increase in serum glucose level”. For the same compound, the Serum potassium levels ([5]; 60 mg sublingual) was “decreased”, the AUC(0-inf) (in vivo [6]; 15 mg) was 196 ng·h/mL and the AUC(0-t) (in vivo [6]; 15 mg) was 74.9 ng·h/mL. It also gave a Cmax (in vivo [6]; 15 mg) of 119 ± 131 ng/mL, a Tmax (in vivo [6]; 15 mg) of 59.2 min and a half-life (in vivo [6]; 15 mg) of 181 ± 36.3 min. It also gave an AUC(0-inf) (in vivo [6]; 30 mg) of 86.7 ng·h/mL, an AUC(0-t) (in vivo [6]; 30 mg) of 82.3 ng·h/mL and a Cmax (in vivo [6]; 30 mg) of 142 ± 192 ng/mL. It also gave a Tmax (in vivo [6]; 30 mg) of 36.7 min, a half-life (in vivo [6]; 30 mg) of 86.3 ± 60.5 min and an AUC(0-inf) (in vivo [6]; 60 mg) of 300 ng·h/mL. The AUC(0-t) (in vivo [6]; 60 mg) was 242 ng·h/mL, the Cmax (in vivo [6]; 60 mg) was 234 ± 182 ng/mL and the Tmax (in vivo [6]; 60 mg) was 44.2 min. It also gave a half-life (in vivo [6]; 60 mg) of 141 ± 135 min, an AUC(0-inf) (in vivo [6]; im, 0.3 mg) of 78.4 ng·h/mL and an AUC(0-t) (in vivo [6]; im, 0.3 mg) of 54.3 ng·h/mL. It also gave a Cmax (in vivo [6]; im, 0.3 mg) of 54.7 ± 28.3 ng/mL, a Tmax (in vivo [6]; im, 0.3 mg) of 24 min and a half-life (in vivo [6]; im, 0.3 mg) of 91.3 ± 44.3 min. It also gave a Cmax1 (in vivo [6]; rabbits, 0.3 mg IM, mean ± SD) of 26.6 ± 9.4 ng/mL, a Cmax2 (in vivo [6]; rabbits, 0.3 mg IM, mean ± SD) of 42.7 ± 18.1 ng/mL and a Tmax1 (in vivo [6]; rabbits, 0.3 mg IM, mean ± SD) of 9.0 ± 2.2 min. The Cmax2 (in vivo [6]; [7]) was 42.7 ± 18.1 ng/mL, the Tmax1 (in vivo [6]; [7]) was 9.0 ± 2.2 min and the Cmax4 (in vivo [6]; [8]) was 55.10 ng/mL. It also gave a Tmax4 (in vivo [6]; [8]) of 180.0 min, a Cmax1 (in vivo [6]; [9]) of 55.4 ± 87.6 ng/mL and a Cmax2 (in vivo [6]; [9]) of 30.4 ± 25.7 ng/mL. For the same compound, the Cmax3 (in vivo [6]; [9]) was 85.2 ± 127.8 ng/mL, the Tmax1 (in vivo [6]; [9]) was 9.2 ± 2.0 min and the Tmax3 (in vivo [6]; [9]) was 111.7 ± 59.5 min. It also gave a Cmax1 (in vivo [6]; [10]) of 147.5 ± 215.7 ng/mL, a Cmax2 (in vivo [6]; [10]) of 82.2 ± 102.1 ng/mL and a Cmax3 (in vivo [6]; [10]) of 45.5 ± 44.3 ng/mL. The Tmax1 (in vivo [6]; [10]) was 8.3 ± 4.1 min, the Cmax2 (in vivo [6]; [11]) was 82.2 ± 102.1 ng/mL and the Tmax1 (in vivo [6]; [11]) was 8.4 ± 4.1 min. For the same compound, the Cmax1 (in vivo [6]; [12]) was 154.0 ± 125.4 ng/mL, the Cmax2 (in vivo [6]; [12]) was 85.4 ± 35.3 ng/mL and the Cmax3 (in vivo [6]; [12]) was 127.8 ± 83.8 ng/mL. For the same compound, the Tmax1 (in vivo [6]; [12]) was 14.2 ± 8.6 min and the Tmax1 (in vivo [6]; rabbits, 60 mg sublingual (2x30 mg tablets), mean ± SD, listed as epinephrine) was 14.2 ± 8.6 min.
In the case of `OC[C@@H](O)[C@@H](O)[C@H](O)[C@H](O)CO` [Mannitol], the Water solubility [2] is listed as 1 gm in 5.5 ml water.
